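96-well plates; 48 h exposure; 5 concentrations. Endpoints by linear interpolation between flanking doses. Not reached: highest tested concentration assigned. GI50 marks 50% less growth.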 Activity calls are given as the source filed them. Cut-off read from the data, not from the text of the source: active = GI50 up to about 1.1 µM and inactive = higher.
Key:
Test in all cases: inhibition of tumour cell growth, NCI panel, 48 h
[1] = system: UACC-257
[2] = system: SK-OV-3
[3] = system: SN12C
[4] = system: DU-145
[5] = system: TK-10
[6] = system: HCT-15
[7] = system: MDA-MB-435
[8] = system: NCI/ADR-RES
[9] = system: LOX IMVI
[10] = system: SF-539
[11] = system: U-251
[12] = system: OVCAR-4
[13] = system: SR
[14] = system: Malme-3M
[15] = system: PC-3
[16] = system: SNB-75
[17] = system: HL-60
[18] = system: COLO 205
[19] = system: HCC 2998
[20] = system: 786-0

Measured: GI50

CCOC(=O)c1cc(C2CCN(c3ccccc3)C2=O)c(C(=O)/C=C(/C)O)[nH]1 (stereo not given)
inactive: [1] 89.1 µM | [2] 96.4 µM | [3] > 100 µM | [4] > 100 µM | [5] > 100 µM | [7] 60.8 µM | [8] 73.5 µM | [9] 58.6 µM | [10] 8.38 µM | [11] > 100 µM | [12] 63.8 µM | [13] 34.1 µM | [14] > 100 µM | [15] 88.3 µM | [16] 74.5 µM | [17] 27.2 µM | [18] > 100 µM | [19] > 100 µM | [20] 54.5 µM
51.6 µM: [6]

CCN(CC)CCCNc1ccc2nnn3c4ccc(O)cc4c(=O)c1c23
5.06 µM: [6]
inactive: [1] 17.9 µM | [2] 8.87 µM | [3] 5.57 µM | [4] 11.9 µM | [5] 3.28 µM | [7] 10.2 µM | [8] 7.14 µM | [9] 2.9 µM | [10] 10.3 µM | [11] 2.33 µM | [12] 6.35 µM | [13] 1.69 µM | [14] 13.1 µM | [15] 6.5 µM | [16] 7.48 µM | [17] 5.55 µM | [18] 2.81 µM | [19] 9.06 µM | [20] 5.71 µM

O=C1C=C(c2ccccc2)O/C1=C\C(=O)c1ccc(Cl)cc1
inactive: [1] 18.2 µM | [2] 98.4 µM | [3] 3.66 µM | [4] 43.6 µM | [5] 20.1 µM | [7] 15.8 µM | [8] 23.2 µM | [9] 16.3 µM | [10] 57.7 µM | [11] 16.3 µM | [12] 21.9 µM | [13] 11.3 µM | [14] 13.6 µM | [15] 16.7 µM | [16] 4.84 µM | [17] 2.18 µM | [18] 16.3 µM | [19] 28.3 µM | [20] 14.3 µM
17.5 µM: [6]

NC(=O)NC1NC(=O)NC1=O (stereo not given) [ALLANTOIN]
inactive: [1] > 100 µM | [2] > 100 µM | [3] > 100 µM | [4] > 100 µM | [5] > 100 µM | [7] > 100 µM | [8] > 100 µM | [9] > 100 µM | [10] > 100 µM | [11] > 100 µM | [12] > 100 µM | [13] > 100 µM | [14] > 100 µM | [15] > 100 µM | [16] > 100 µM | [17] > 100 µM | [18] > 100 µM | [19] > 100 µM | [20] > 100 µM
> 100 µM: [6]

C/C(=C\COc1cc(O)c2c(c1)C(=O)c1cc(C)cc(O)c1C2=O)CCC1OC1(C)C (stereo not given)
84.3 µM: [6]
inactive: [1] > 100 µM | [2] > 100 µM | [3] > 100 µM | [4] > 100 µM | [5] 40.3 µM | [7] > 100 µM | [8] > 100 µM | [9] > 100 µM | [10] 74 µM | [11] 63.8 µM | [12] 37.8 µM | [13] 13.9 µM | [14] > 100 µM | [15] > 100 µM | [16] 28.2 µM | [17] > 10 µM | [18] > 100 µM | [19] > 100 µM | [20] 58.2 µM

CC(Oc1ccccc1Cl)C(=O)NN1C(=O)CC(=O)NC1=S (stereo not given)
inactive: [1] > 100 µM | [2] > 100 µM | [3] > 100 µM | [4] > 100 µM | [5] > 100 µM | [7] > 100 µM | [8] > 100 µM | [9] 61.9 µM | [10] > 100 µM | [11] > 100 µM | [12] > 100 µM | [13] > 100 µM | [14] > 100 µM | [15] > 100 µM | [16] > 100 µM | [17] 9.23 µM | [18] > 100 µM | [19] > 100 µM | [20] > 100 µM
> 100 µM: [6]

COc1cc(OC)c(-n2[nH]c(=O)n(C)c2=O)c(OC)c1
inactive: [1] > 100 µM | [2] > 100 µM | [3] > 100 µM | [4] > 100 µM | [5] > 100 µM | [7] > 100 µM | [8] > 100 µM | [9] > 100 µM | [10] > 100 µM | [11] > 100 µM | [12] > 100 µM | [13] > 100 µM | [14] > 100 µM | [15] > 100 µM | [16] > 100 µM | [17] > 100 µM | [18] > 100 µM | [19] > 100 µM | [20] > 100 µM
> 100 µM: [6]

Reference: ChEMBL document CHEMBL1201862, “PubChem BioAssay data set” (2004)
